Source: patent US12352767B2, “Method of treating cognitive decline associated with neurological diseases based on a decrease in FLT4 expression or activity” (University of Virginia Patent Foundation, priority 2018, dated 2025)
“Also recorded” adds a separate entry of the source.

Tests used:
brain parenchyma = assay: Efflux of fluorescent tracers injected into the brain parenchyma; assay type: in vivo, mice; conditions: 7 days after Visudyne/photoconversion, vs both control groups
Protocol: An incision was made in the skin to expose the skull and a hole was drilled at +1.5 mm in the anterior-posterior axis and −1.5 mm in the medial-lateral axis relative to bregma. Then, using a Hamilton syringe (coupled to a 33-gauge needle) placed at +2.5 mm in the dorsal-ventral axis (relative to bregma), 1 μL of either Alexa Fluor® 647 conjugated OVA (at 0.5 mg/mL), HiLyte™ Fluor 647 conjugated Aβ42 (at 0.05 μg/mL, AnaSpec, Inc.) or BODIPY™ FL conjugated low density lipoprotein (LDL) from human plasma (at 0.1 mg/mL, Thermo Fisher Scientific) in artificial CSF were injected at a rate of 0.2 μL/min into the brain parenchyma. […] After injecting, the syringe was left in place for additional 5 min to prevent back-flow.

[1] = test system: hippocampal transcriptome; assay: RNA-seq of whole hippocampus after meningeal lymphatic ablation (Table 2, Table 3); assay type: in vivo, mice
Protocol: After defrosting in ice, samples were mechanically dissociated in extraction buffer and RNA was isolated using the kit components according to the manufacturer's instructions (RNeasy mini kit, cat. no. 74106, Qiagen). The Illumina TruSeq Stranded Total RNA Library Prep Kit was used for cDNA library preparation from total RNA samples. Sample quality control was performed on an Agilent 4200 TapeStation Instrument, using the Agilent D1000 kit, and on the Qubit Fluorometer (Thermo Fisher Scientific). For RNA sequencing (RNA-seq), libraries were loaded on to a NextSeq 500 (Illumina) using an Illumina NextSeq High Output (150 cycle) cartridge (#FC-404-2002).
The raw sequencing reads (FASTQ files) were first chastity filtered, which removes any clusters that have a higher than expected intensity of the called base compared to other bases. The quality of the reads was then evaluated using FastQC^57, and after passing quality control (QC), the expression of the transcripts was quantified against the UCSC mm10 genome^58 using Salmon^59. These transcript abundances were then imported into R and summarized with tximport^60, and then DESeq2^61 was used to normalize the raw counts, perform exploratory analysis (e.g., principal component analysis), and to perform differential expression (DE) analysis. Before DE analysis of the meningeal LECs from adult vs old mice dataset, surrogate variable analysis^62 (SVA) was used to identify and adjust for latent sources of unwanted variation as implemented in the SVA package^63. The P-values from the DE analysis were corrected for multiple hypothesis testing with the Benjamini-Hochberg false discovery rate procedure (adj. P-value). Functional enrichment of DE genes, using gene sets from Gene Ontology (GO) and Kyoto Encyclopedia of Genes and Genomes (KEGG), was determined with Fisher's exact test as implemented in the clusterProfiler^64 Bioconductor package. Heatmaps of the DE genes and enriched gene sets were generated with the R package pheatmap^65. Normalized counts of selected transcripts were used to calculate the fold change relative to respective controls.

5×FAD mice = assay: Amyloid pathology in meninges and hippocampus of 5xFAD mice (Aβ immunostaining); assay type: in vivo
Protocol: Male or female wild-type mice (C57BL/6J background) were either bred in-house, purchased from the Jackson Laboratory (Bar Harbor, Maine, USA) or provided by the National Institutes of Health/National Institute on Aging (Bethesda, MD, USA). All mice were maintained in the animal facility for habituation for at least 1 week prior to the start of the manipulation/experimentation. C57BL/6J wild-type mice were tested at 2-3, 12-14 and 20-24 months of age. Male hemizygous B6.Cg-Tg(PDGFB-APPSwInd)20Lms/2Mmjax (J20, JAX stock #006293) and B6.Cg-Tg(APPSwFILon,PSEN1*M146L*L286V)6799Vas/Mmjax (5×FAD, JAX stock #008730) were purchased from the Jackson Laboratory and bred in-house on a C57BL/6J background. […] 5×FAD hemizygous mice overexpress the transgene constructs under neural-specific elements of the mouse thymocyte differentiation antigen 1 promoter and present accelerated accumulation of Aβ42 and deposition of amyloid and gliosis in the brain starting at 2 months of age, with dramatic amyloid plaque load without major behavioral deficits at 5 months^45. In-house bred male transgene carriers and non-carrier (WT) littermates were used at different ages that are indicated throughout the manuscript. Prox1^LacZ mice (designated Prox1^+/− mice in this manuscript) on a NMRI background (kindly provided by Dr. Guillermo Oliver, Northwestern University, Chicago, IL) were also bred in-house and used in this study as a constitutive model for dysfunctional lymphatic vessels^46. Mice of all strains were housed in an environment with controlled temperature and humidity, on 12 hours light/dark cycles (lights on at 7:00), and fed with regular rodent's chow and sterilized tap water ad libitum. All experiments were approved by the Institutional Animal Care and Use Committee of the University of Virginia.

[2] = after meningeal lymphatic ablation (Visudyne/photoconversion) and MWM
[3] = Visudyne/photoconversion for 1.5 months

Q: Which results are given for verteporfin [Visudyne]?
A: levels of remaining tracers in brain parenchyma (Aβ42-HiLyte647, OVA-A647, LDL-BODIPY FL) (brain parenchyma; one hour after stereotaxic injection): higher levels of remnants; Aβ42-HiLyte647 area fraction in the injected brain hemisphere (brain parenchyma): significantly higher level; LDL-BODIPY FL area fraction in the injected brain hemisphere (brain parenchyma): significantly higher level; OVA-A647 area fraction in the injected brain hemisphere (brain parenchyma): significantly higher level; number of genes down-regulated in the hippocampus [1, 2]: 2138 genes; number of genes up-regulated in the hippocampus [1, 2]: 1599 genes; hippocampal transcriptome (RNA-seq principal component analysis) without MWM ([1]; four weeks of meningeal lymphatic ablation, Visudyne/photoconversion vs vehicle/photoconversion): did not induce significant changes; also recorded: did not show a differential clustering; hippocampal gene expression (RNA-seq) after MWM performance ([1]; prolonged meningeal lymphatic ablation, Visudyne/photoconversion vs vehicle/photoconversion): significant differences in hippocampal gene expression; also recorded: differential clustering; amyloid deposition in the meninges (5×FAD mice; Visudyne/photoconversion every 3 weeks for 1.5 months from ~2 months of age): marked deposition of amyloid in the meninges; brain amyloid burden in the hippocampi (5×FAD mice; [3]): aggravation of brain amyloid burden; macrophage recruitment to Aβ aggregates in meninges (5×FAD mice; [3]): macrophage recruitment to large Aβ aggregates
